Activity calls are given as the source filed them. The calls are words filed in the database; no cut-off is given here.
Tests used:
MDA-MB-231 [1] = experiment: Downregulation of Rb protein phosphorylation at Ser608 in human MDA-MB-231 cells incubated for 24 hrs by Western blot analysis; type: functional, cell-based; conditions: dose 37-333 nM
MDA-MB-231 [2] = experiment: Inhibition of RNA polymerase 2 C-terminal domain phosphorylation at Ser7 in heptad repeat in human MDA-MB-231 cells at 37 to 333 nM incubated for 24 hrs by Western blotting analysis; type: cell-based; conditions: dose 37-333 nM
MDA-MB-231 [3] = experiment: Downregulation of Rb protein phosphorylation at Thr826 in human MDA-MB-231 cells incubated for 24 hrs by Western blot analysis; type: functional, cell-based; conditions: dose 37-333 nM
[4] = AUC(0 to t) in CD1 mouse at 10 mg/kg, po measured upto 24 hrs by LC-MS/MS analysis; type: ADME, organism-based; conditions: in vivo
MDA-MB-453 [5] = experiment: Downregulation of Rb protein phosphorylation at Thr821 in human MDA-MB-453 cells incubated for 24 hrs by Western blot analysis; type: functional, cell-based; conditions: dose 37-333 nM
MDA-MB-231 [6] = experiment: Downregulation of Rb protein phosphorylation at Ser780 in human MDA-MB-231 cells incubated for 24 hrs by Western blot analysis; type: functional, cell-based; conditions: dose 37-333 nM
[7] = Half life in CD1 mouse at 10 mg/kg, po measured upto 24 hrs by LC-MS/MS analysis; type: ADME, organism-based; conditions: in vivo
MDA-MB-231 [8] = experiment: Induction of cell cycle arrest in human MDA-MB-231 cells assessed as G0/G1 phase arrest at 12.3 to 1000 nM incubated for 24 hrs by PI staining based flow cytometry analysis; type: functional; conditions: dose 12.3-1000 nM
[9] = molecular target: Cyclin-dependent kinase 17 (Homo sapiens) (UniProt Q00537); experiment: Inhibition of CDK17 (unknown origin) at 1 uM by discoverX kinomescan assay
MDA-MB-453 [10] = experiment: Downregulation of Rb protein phosphorylation at Thr826 in human MDA-MB-453 cells incubated for 24 hrs by Western blot analysis; type: functional, cell-based; conditions: dose 37-333 nM
MDA-MB-453 [11] = experiment: Downregulation of Rb protein phosphorylation at Ser780 in human MDA-MB-453 cells incubated for 24 hrs by Western blot analysis; type: functional, cell-based; conditions: dose 37-333 nM
CDK7/Cyclin H/MNAT1 = CDK7/Cyclin H/MNAT1 (Homo sapiens, UniProt P50613); experiment: Inhibition of human His-tagged CDK7/cyclin H/MNAT1 expressed in baculovirus infected insect cells preincubated for 10 mins followed by substrate and ATP addition and measured after 60 mins by ADP-Glo kinase assay; design: species or system Insect cell
MDA-MB-231 [12] = experiment: Downregulation of Rb protein phosphorylation at Ser795 in human MDA-MB-231 cells incubated for 24 hrs by Western blot analysis; type: functional, cell-based; conditions: dose 37-333 nM
[13] = molecular target: T1, Cyclin-dependent kinase-like 5 (Homo sapiens) (UniProt O76039); experiment: Inhibition of CDKL5 (unknown origin) at 1 uM by discoverX kinomescan assay
T1 sequence (whole entry): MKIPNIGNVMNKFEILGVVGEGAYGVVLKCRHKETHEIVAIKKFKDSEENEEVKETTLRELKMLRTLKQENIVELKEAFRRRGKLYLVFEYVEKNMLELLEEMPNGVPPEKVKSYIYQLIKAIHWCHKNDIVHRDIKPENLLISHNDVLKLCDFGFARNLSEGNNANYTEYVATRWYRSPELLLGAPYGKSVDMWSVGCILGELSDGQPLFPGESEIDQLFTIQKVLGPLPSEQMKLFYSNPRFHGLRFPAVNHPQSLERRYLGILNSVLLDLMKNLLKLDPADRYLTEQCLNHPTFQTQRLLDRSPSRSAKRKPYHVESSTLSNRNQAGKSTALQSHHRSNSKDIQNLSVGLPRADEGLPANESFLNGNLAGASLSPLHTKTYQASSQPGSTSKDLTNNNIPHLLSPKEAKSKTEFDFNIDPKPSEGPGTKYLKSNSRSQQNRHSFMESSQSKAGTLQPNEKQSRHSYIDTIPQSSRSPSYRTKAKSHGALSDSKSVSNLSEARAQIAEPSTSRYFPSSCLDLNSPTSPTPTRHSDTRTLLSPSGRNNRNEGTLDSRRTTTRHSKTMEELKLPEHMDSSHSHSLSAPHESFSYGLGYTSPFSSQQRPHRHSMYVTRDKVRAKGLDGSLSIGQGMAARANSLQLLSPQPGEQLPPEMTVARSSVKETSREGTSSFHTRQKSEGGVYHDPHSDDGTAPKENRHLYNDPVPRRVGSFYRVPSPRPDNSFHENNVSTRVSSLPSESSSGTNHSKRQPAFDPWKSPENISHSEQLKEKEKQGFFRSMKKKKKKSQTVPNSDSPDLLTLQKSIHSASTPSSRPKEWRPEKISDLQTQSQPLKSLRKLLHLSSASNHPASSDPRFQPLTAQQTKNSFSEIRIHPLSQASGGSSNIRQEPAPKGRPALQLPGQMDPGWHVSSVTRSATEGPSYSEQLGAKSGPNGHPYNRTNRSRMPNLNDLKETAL

Sequence of Cyclin-dependent kinase 17 (Homo sapiens) (Q00537 whole entry, looked up): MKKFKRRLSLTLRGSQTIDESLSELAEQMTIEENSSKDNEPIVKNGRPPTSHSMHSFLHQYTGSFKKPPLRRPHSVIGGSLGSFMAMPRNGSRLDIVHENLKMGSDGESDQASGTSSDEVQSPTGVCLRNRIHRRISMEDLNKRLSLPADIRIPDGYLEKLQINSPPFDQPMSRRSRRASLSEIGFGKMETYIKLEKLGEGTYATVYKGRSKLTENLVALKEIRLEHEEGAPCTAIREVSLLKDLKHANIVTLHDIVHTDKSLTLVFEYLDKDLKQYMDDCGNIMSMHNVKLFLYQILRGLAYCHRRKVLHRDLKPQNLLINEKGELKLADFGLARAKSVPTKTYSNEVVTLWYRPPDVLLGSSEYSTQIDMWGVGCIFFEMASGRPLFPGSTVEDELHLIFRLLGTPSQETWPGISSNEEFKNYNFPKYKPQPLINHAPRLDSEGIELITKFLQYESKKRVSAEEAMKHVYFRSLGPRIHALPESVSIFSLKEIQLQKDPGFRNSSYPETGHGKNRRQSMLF
Sequence of CDK7/Cyclin H/MNAT1 (P51946 whole entry): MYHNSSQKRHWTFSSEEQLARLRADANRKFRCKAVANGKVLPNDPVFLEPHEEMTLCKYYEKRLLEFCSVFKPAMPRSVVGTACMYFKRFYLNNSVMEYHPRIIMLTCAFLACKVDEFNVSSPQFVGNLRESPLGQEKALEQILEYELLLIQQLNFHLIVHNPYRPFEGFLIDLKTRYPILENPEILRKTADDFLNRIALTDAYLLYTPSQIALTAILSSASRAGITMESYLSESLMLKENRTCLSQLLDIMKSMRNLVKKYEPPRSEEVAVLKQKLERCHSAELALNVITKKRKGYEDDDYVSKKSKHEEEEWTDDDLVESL
Sequence of CDK7/Cyclin H/MNAT1 (P50613 whole entry): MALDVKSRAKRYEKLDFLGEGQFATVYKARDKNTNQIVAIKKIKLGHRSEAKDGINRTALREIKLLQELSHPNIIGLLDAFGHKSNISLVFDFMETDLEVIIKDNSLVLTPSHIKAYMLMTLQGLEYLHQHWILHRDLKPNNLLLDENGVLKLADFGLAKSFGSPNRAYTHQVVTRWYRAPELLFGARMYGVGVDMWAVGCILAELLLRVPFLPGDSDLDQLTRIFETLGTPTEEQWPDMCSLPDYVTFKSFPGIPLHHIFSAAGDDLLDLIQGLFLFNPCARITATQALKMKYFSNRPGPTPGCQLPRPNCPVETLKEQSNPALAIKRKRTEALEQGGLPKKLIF
Sequence of CDK7/Cyclin H/MNAT1 (P51948 whole entry, further chain): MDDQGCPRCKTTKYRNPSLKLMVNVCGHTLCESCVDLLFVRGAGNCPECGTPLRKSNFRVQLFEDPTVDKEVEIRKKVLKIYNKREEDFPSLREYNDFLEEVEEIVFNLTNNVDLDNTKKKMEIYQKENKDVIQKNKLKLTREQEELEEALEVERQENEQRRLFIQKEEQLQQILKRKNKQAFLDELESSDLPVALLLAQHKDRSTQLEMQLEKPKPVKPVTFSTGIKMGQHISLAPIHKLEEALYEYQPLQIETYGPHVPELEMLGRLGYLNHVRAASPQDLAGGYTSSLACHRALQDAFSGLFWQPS

AUC(0-t) at 24 h [4]: 513 ng·h/mL
half-life [7]: 2.11 h
inhibition [9]: inactive
IC50 (CDK7/Cyclin H/MNAT1): 6.5 nM
inhibition [13]: inactive
SMILES: CP(C)(=O)c1c(C#N)ccc2c(-c3nc(N[C@@H]4CNC[C@@H](F)C4)nc4ccsc34)c[nH]c12
Activity (MDA-MB-231 [1]): Dose-Dependent Effect
inhibition (MDA-MB-231 [2]): Active
Activity (MDA-MB-231 [3]): Dose-Dependent Effect
Activity (MDA-MB-453 [5]): Dose-Dependent Effect
Activity (MDA-MB-231 [6]): Dose-Dependent Effect
Activity (MDA-MB-231 [8]): Active
Activity (MDA-MB-453 [10]): Dose-Dependent Effect
Activity (MDA-MB-453 [11]): Dose-Dependent Effect
Activity (MDA-MB-231 [12]): Dose-Dependent Effect
